The melting point is the temperature, or range, at which the solid turns liquid.

`O=C(NN1CCCCC1)c1nc(-c2ccc(Cl)cc2Cl)c(-c2ccc(Br)cc2)s1` came in with a melting point of 171 to 173 °C.

For `O=C(NN1CCCCCC1)c1nc(-c2ccc(Cl)cc2Cl)c(-c2ccc(Cl)cc2)s1`, the melting point was 185 to 186 °C.

Consider `O=C(Nc1ccccc1)c1nc(-c2ccc(Cl)cc2Cl)c(-c2ccc(Cl)cc2)s1`, for which the melting point was 167 to 168 °C. On to `O=C(NCCCC(F)(F)F)c1nc(-c2ccc(Cl)cc2Cl)c(-c2ccc(Cl)cc2)s1`, for which the melting point lay within 99 to 101 °C.

The values are drawn from patent US7342032B2 (dated 2008).
